Measured values published in ChEMBL document CHEMBL5303763, “Data for DCP probe BI-3802” (2023).

How the values were obtained:
[1] = target: Prostaglandin G/H synthase 1 (Homo sapiens) (UniProt P23219); test: COX-1 Eurofins SafetyScreen44 (BI); conditions: Compound concentration 10.0 uM
[2] = target: Prostaglandin G/H synthase 2 (Homo sapiens) (UniProt P35354); test: COX-2 Eurofins SafetyScreen44 (BI); conditions: Compound concentration 10.0 uM
[3] = target: 5-hydroxytryptamine receptor 2A (Homo sapiens) (UniProt P28223); test: 5HT2AH_AGON Eurofins SafetyScreen44 (BI); conditions: filed as agonist, Compound concentration 10.0 uM
[4] = target: 5-hydroxytryptamine receptor 2B (Homo sapiens) (UniProt P41595); test: 5HT2B/H AG Eurofins SafetyScreen44 (BI); conditions: filed as agonist, Compound concentration 10.0 uM
[5] = target: GABA-A receptor; anion channel (Rattus norvegicus) (UniProt O09028+P15431+P18506+P18508+P19969+P20236+P23574+P23576+P28471+P28473+P30191+P62813+P63079+P63138+Q91ZM7+Q9ES14); test: BZD/CENTR/R Eurofins SafetyScreen44 (BI); type: protein-complex assay; conditions: Compound concentration 10.0 uM
[6] = target: Cannabinoid receptor 2 (Homo sapiens) (UniProt P34972); test: CB2/PERIPH/H Eurofins SafetyScreen44 (BI); conditions: Compound concentration 10.0 uM
[7] = target: Sodium-dependent dopamine transporter (Homo sapiens) (UniProt Q01959); test: DATRANS/HUM Eurofins SafetyScreen44 (BI); conditions: Compound concentration 10.0 uM
[8] = target: Glucocorticoid receptor (Homo sapiens) (UniProt P04150); test: GCORTICOID/H Eurofins SafetyScreen44 (BI); conditions: Compound concentration 10.0 uM
[9] = target: Histamine H1 receptor (Homo sapiens) (UniProt P35367); test: H1/PYRIL/HS Eurofins SafetyScreen44 (BI); conditions: Compound concentration 10.0 uM
[10] = target: Tyrosine-protein kinase Lck (Homo sapiens) (UniProt P06239); test: LCK_CE Eurofins SafetyScreen44 (BI); conditions: Compound concentration 10.0 uM
[11] = target: T1, Muscarinic acetylcholine receptor M2 (Homo sapiens) (UniProt P08172); test: M2/H Eurofins SafetyScreen44 (BI); conditions: filed as antagonist, Compound concentration 10.0 uM
T1 sequence (whole entry): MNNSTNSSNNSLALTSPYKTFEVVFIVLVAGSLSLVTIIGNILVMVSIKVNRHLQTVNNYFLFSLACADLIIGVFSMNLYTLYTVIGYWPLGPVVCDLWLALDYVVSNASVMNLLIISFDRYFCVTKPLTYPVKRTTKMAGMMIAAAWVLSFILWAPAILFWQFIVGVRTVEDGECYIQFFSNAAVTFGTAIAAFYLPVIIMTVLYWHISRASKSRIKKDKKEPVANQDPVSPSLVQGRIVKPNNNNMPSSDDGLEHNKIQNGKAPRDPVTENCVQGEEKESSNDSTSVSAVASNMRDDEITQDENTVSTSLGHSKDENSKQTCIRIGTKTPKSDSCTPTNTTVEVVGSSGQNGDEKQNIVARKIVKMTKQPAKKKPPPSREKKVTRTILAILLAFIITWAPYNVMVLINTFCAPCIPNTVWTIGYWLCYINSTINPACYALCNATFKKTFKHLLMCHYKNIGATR

[12] = target: MAO-A (Amine oxidase [flavin-containing] A) (Rattus norvegicus, UniProt P21396); test: MAO-A_ANTAG Eurofins SafetyScreen44 (BI); parameters: scale not given: the % may be the effect or the level left; conditions: compound concentration 10 uM, read-out: % Ctrl
[13] = target: voltage-gated Na+ channel (site 2) (Rattus norvegicus, UniProt F1LQQ7+O08562+O88420+O88457+P04774+P04775+P08104+P15389+P15390+Q62968); test: NA+/SITE2/R Eurofins SafetyScreen44 (BI); type: protein assay; conditions: rat brain, probe [3H]batrachotoxinin, compound concentration 10 uM, read-out: % Ctrl
[14] = target: Neuronal acetylcholine receptor; alpha4/beta2 (Homo sapiens) (UniProt P17787+P43681); test: N_NEURO_A4B2 Eurofins SafetyScreen44 (BI); type: protein-complex assay; conditions: filed as agonist, Compound concentration 10.0 uM
[15] = target: 3',5'-cyclic-AMP phosphodiesterase 4D (Homo sapiens) (UniProt Q08499); test: PDE4D2 Eurofins SafetyScreen44 (BI); conditions: Compound concentration 10.0 uM
[16] = target: Sodium-dependent serotonin transporter (Homo sapiens) (UniProt P31645); test: SLC6A4/H Eurofins SafetyScreen44 (BI); conditions: filed as antagonist, Compound concentration 10.0 uM
[17] = target: RAC-beta serine/threonine-protein kinase (Homo sapiens) (UniProt P31751); test: AKT2 Invitrogen Lab (UK) kinase screen (BI); conditions: Compound concentration 1.0 uM
[18] = target: Serine/threonine-protein kinase Chk2 (Homo sapiens) (UniProt O96017); test: CHEK2 Invitrogen Lab (UK) kinase screen (BI); conditions: Compound concentration 1.0 uM
[19] = target: Glycogen synthase kinase-3 beta (Homo sapiens) (UniProt P49841); test: GSK3B Invitrogen Lab (UK) kinase screen (BI); conditions: Compound concentration 1.0 uM
[20] = target: Inhibitor of nuclear factor kappa-B kinase subunit beta (Homo sapiens) (UniProt O14920); test: IKBKB Invitrogen Lab (UK) kinase screen (BI); conditions: Compound concentration 1.0 uM
[21] = target: MAP kinase-activated protein kinase 2 (Homo sapiens) (UniProt P49137); test: MAPKAPK2 Invitrogen Lab (UK) kinase screen (BI); conditions: Compound concentration 1.0 uM
[22] = target: High affinity nerve growth factor receptor (Homo sapiens) (UniProt P04629); test: NTRK1 Invitrogen Lab (UK) kinase screen (BI); conditions: Compound concentration 1.0 uM
[23] = target: Phosphatidylinositol 4,5-bisphosphate 3-kinase catalytic subunit gamma isoform (Homo sapiens) (UniProt P48736); test: PIK3CG Invitrogen Lab (UK) kinase screen (BI); conditions: Compound concentration 1.0 uM
[24] = target: Serine/threonine-protein kinase PLK1 (Homo sapiens) (UniProt P53350); test: PLK1 Invitrogen Lab (UK) kinase screen (BI); conditions: Compound concentration 1.0 uM
[25] = target: Serine/threonine-protein kinase 3 (Homo sapiens) (UniProt Q13188); test: STK3 Invitrogen Lab (UK) kinase screen (BI); conditions: Compound concentration 1.0 uM
[26] = target: 5-hydroxytryptamine receptor 1B (Homo sapiens) (UniProt P28222); conditions: Compound concentration 10.0 uM
[27] = target: 5-hydroxytryptamine receptor 2A (Homo sapiens) (UniProt P28223); conditions: Compound concentration 10.0 uM
[28] = target: D(1A) dopamine receptor (Homo sapiens) (UniProt P21728); conditions: Compound concentration 10.0 uM
[29] = target: D(2) dopamine receptor (Homo sapiens) (UniProt P14416); conditions: Compound concentration 10.0 uM
[30] = target: Muscarinic acetylcholine receptor M3 (Homo sapiens) (UniProt P20309); conditions: Compound concentration 10.0 uM
[31] = target: Beta-3 adrenergic receptor (Homo sapiens) (UniProt P13945); conditions: Compound concentration 10.0 uM
[32] = target: 3-phosphoinositide-dependent protein kinase 1 (Homo sapiens) (UniProt O15530); test: PDK1 Invitrogen Lab (UK) kinase screen (BI); conditions: Compound concentration 1.0 uM
[33] = target: Zinc finger and BTB domain-containing protein 32 (Homo sapiens, UniProt Q9Y2Y4); test: SPR (ZBTB32), Ontario institute for cancer research
[34] = target: 5-hydroxytryptamine receptor 1B (Homo sapiens) (UniProt P28222); test: 5HT1B(H) Eurofins SafetyScreen44 (BI); conditions: filed as antagonist, Compound concentration 10.0 uM

Sequence of 5-hydroxytryptamine receptor 1B (Homo sapiens) (P28222 whole entry): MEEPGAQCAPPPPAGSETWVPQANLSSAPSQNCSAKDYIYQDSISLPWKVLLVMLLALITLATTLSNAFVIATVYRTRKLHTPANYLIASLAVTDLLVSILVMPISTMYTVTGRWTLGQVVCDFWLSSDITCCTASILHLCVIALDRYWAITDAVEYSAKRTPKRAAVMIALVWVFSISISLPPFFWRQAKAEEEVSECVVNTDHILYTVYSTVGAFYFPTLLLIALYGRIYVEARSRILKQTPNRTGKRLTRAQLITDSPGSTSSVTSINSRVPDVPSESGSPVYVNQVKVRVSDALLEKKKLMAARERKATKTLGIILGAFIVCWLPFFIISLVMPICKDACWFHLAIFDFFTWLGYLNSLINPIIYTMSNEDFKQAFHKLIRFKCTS
Sequence of 5-hydroxytryptamine receptor 2A (Homo sapiens) (P28223 whole entry): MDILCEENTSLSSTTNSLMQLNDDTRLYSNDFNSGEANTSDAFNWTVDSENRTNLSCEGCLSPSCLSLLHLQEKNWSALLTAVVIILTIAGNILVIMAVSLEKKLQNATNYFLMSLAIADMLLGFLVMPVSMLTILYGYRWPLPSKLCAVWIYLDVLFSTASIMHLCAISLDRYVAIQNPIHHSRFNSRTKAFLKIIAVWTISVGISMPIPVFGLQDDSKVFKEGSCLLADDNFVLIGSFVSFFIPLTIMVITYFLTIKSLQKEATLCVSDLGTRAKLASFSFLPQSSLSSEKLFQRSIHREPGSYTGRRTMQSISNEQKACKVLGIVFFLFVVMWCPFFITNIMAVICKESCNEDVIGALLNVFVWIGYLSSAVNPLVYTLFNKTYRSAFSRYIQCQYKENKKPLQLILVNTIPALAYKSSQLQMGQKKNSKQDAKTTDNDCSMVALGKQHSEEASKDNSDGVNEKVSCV
Sequence of Prostaglandin G/H synthase 1 (Homo sapiens) (P23219 whole entry): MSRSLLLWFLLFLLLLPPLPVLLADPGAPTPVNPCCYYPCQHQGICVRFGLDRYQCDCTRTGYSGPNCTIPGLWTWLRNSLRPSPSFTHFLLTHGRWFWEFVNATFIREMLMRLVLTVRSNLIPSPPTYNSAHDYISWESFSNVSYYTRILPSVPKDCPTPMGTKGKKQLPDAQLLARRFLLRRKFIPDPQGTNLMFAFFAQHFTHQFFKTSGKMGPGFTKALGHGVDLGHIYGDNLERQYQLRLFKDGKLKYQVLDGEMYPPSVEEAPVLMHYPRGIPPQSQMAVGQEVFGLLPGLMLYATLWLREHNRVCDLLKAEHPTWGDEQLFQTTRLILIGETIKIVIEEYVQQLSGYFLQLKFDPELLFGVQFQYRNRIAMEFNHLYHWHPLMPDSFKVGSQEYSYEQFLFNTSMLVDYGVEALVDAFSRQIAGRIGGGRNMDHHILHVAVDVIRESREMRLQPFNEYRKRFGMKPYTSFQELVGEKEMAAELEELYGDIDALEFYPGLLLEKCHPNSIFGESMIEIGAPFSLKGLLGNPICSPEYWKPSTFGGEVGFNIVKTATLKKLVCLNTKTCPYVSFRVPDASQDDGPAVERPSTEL
Sequence of D(2) dopamine receptor (Homo sapiens) (P14416 whole entry): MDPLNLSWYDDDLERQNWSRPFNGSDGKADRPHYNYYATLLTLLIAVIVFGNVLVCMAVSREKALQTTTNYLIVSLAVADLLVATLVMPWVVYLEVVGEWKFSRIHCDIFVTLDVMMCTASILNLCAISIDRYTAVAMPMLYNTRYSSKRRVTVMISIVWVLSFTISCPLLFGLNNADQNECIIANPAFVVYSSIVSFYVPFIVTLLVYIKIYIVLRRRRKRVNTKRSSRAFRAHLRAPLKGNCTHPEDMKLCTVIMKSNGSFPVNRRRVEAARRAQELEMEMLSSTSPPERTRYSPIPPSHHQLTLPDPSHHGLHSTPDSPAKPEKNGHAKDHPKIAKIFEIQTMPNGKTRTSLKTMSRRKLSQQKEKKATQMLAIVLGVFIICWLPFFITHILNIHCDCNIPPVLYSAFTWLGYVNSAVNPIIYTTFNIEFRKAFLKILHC
Sequence of Glucocorticoid receptor (Homo sapiens) (P04150 whole entry): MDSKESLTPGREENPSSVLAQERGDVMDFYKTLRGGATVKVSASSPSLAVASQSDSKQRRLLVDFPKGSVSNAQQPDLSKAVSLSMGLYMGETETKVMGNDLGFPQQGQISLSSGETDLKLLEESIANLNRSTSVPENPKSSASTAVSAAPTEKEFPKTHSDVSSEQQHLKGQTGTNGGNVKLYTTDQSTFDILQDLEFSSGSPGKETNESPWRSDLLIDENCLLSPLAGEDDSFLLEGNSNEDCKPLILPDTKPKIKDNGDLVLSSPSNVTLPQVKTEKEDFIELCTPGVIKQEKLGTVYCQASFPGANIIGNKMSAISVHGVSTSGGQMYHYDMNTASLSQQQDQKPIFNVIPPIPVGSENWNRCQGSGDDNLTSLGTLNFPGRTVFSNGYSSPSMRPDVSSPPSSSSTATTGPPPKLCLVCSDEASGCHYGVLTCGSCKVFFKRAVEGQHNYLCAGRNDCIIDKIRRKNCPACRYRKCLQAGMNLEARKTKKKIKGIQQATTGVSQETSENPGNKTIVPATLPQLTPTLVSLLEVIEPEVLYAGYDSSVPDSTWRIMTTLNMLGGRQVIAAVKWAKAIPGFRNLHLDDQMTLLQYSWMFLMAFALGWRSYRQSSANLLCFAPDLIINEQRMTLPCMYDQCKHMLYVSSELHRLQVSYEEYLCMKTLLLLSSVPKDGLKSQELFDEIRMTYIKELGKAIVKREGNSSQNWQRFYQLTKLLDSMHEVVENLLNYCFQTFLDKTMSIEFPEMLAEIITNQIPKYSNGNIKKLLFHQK
Sequence of D(1A) dopamine receptor (Homo sapiens) (P21728 whole entry): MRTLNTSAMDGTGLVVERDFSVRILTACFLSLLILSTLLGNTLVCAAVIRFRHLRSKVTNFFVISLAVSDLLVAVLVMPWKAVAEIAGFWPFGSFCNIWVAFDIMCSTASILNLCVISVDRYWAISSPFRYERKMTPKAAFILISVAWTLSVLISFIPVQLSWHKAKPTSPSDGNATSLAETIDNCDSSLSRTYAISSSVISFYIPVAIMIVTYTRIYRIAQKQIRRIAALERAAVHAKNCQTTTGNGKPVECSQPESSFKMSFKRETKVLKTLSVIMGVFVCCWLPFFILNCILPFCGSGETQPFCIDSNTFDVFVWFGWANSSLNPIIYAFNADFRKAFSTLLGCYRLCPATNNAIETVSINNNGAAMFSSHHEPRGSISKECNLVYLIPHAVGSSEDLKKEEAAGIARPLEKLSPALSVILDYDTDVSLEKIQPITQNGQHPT
Sequence of Cannabinoid receptor 2 (Homo sapiens) (P34972 whole entry): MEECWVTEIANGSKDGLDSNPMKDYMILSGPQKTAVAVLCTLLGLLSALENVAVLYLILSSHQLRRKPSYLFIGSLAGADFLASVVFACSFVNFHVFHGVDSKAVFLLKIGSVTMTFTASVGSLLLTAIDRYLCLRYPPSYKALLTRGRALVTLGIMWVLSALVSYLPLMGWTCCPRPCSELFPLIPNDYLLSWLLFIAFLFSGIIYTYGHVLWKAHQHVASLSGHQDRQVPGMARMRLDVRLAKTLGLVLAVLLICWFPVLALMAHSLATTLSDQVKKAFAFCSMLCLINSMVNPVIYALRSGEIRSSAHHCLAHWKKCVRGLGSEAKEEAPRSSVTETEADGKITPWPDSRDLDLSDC
Sequence of Muscarinic acetylcholine receptor M3 (Homo sapiens) (P20309 whole entry, looked up): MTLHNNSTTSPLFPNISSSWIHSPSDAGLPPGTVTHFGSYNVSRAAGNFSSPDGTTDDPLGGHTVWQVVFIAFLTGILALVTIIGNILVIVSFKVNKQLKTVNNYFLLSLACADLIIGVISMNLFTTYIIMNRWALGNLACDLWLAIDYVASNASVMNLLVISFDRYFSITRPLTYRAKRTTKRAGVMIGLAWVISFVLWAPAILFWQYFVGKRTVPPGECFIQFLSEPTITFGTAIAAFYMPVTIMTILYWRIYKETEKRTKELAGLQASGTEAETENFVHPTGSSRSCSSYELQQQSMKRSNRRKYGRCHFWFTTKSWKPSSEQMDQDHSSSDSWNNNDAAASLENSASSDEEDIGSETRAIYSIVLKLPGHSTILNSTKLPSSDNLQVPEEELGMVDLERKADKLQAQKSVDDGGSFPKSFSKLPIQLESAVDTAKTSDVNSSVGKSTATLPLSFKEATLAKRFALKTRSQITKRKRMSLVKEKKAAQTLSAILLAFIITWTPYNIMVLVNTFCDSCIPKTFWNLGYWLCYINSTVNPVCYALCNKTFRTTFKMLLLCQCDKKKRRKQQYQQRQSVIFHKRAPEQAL
Sequence of MAO-A (Amine oxidase [flavin-containing] A) (P21396 whole entry): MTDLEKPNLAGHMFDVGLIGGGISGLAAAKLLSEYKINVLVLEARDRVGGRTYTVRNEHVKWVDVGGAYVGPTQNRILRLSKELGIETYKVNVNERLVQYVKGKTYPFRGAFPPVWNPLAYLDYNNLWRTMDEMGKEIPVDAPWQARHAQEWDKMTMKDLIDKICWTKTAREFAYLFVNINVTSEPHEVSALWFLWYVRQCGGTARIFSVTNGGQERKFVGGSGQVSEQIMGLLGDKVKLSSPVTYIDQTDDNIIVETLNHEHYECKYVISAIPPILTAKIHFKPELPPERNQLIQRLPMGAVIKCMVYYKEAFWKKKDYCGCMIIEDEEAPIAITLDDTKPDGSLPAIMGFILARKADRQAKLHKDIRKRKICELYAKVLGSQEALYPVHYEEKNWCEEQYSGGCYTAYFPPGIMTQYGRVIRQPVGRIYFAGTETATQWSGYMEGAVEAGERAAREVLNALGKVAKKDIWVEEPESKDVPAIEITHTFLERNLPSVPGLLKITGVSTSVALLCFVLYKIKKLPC

| SMILES | residual activity [1] | residual activity [2] | residual activity [3] | residual activity [4] | residual activity [5] | residual activity [6] | residual activity [7] | residual activity [8] | residual activity [9] | residual activity [10] | residual activity [11] | activity at 10 µM [12] | activity at 10 µM [13] | residual activity [14] | residual activity [15] | residual activity [16] | further results |
| --- | --- | --- | --- | --- | --- | --- | --- | --- | --- | --- | --- | --- | --- | --- | --- | --- | --- |
| CNC(=O)COc1cc2cc(Nc3nc(N4C[C@H](C)C[C@H](C)C4)ncc3Cl)ccc2n(C)c1=O | 90% | 88% | 112% | 12% | 97% | 96% | 88% | 99% | 105% | 114% | 102% | 89% (not active) | 114% (not active) | 107% | 100% | 104% | residual activity [17]: 96%; residual activity [18]: 96%; residual activity [19]: 93%; residual activity [20]: 102%; residual activity [21]: 102%; residual activity [22]: 83%; residual activity [23]: 95%; residual activity [24]: 92%; residual activity [25]: 101%; inhibition [26]: 8.61%; inhibition [27]: -1.56%; inhibition [28]: -4.07%; inhibition [29]: -8.96%; inhibition [30]: -2.43%; inhibition [31]: -4.02%; residual activity [32]: 98% |
| C[C@@H]1C[C@H](C)CN(c2ncc(Cl)c(Nc3ccc4c(c3)cc(OC(C)(C)C(=O)O)c(=O)n4C)n2)C1 | 82% | 75% | 125% | 159% | 147% | 103% | 100% | 97% | 86% | 87% | 111% | 96% (not active) | 88% (not active) | 106% | 87% | 91% | Kd [33]: No binding; residual activity [34]: 95% |
